Consider 30 molecules from ChEMBL document CHEMBL4177694, “Discovery of the first low-shift positive allosteric modulators for the muscarinic M1 receptor” (Bioorg Med Chem Lett, 2017).

Series [1] has as its target T1, Muscarinic acetylcholine receptor M1 (Homo sapiens) (UniProt P11229).
T1 sequence (whole entry): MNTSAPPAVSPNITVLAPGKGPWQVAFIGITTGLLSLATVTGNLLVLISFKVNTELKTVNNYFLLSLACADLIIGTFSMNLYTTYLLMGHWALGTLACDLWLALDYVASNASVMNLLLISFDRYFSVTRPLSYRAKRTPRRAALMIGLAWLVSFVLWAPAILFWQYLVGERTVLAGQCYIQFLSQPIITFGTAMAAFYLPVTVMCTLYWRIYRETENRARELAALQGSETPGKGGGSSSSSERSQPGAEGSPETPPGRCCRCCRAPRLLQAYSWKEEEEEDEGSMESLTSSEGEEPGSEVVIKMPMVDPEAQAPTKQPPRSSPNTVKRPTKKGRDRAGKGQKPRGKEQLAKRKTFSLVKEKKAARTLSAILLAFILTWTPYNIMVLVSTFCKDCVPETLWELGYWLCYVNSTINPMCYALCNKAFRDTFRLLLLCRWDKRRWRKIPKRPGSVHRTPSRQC
As to the kind of experiment: (§1) Positive allosteric modulation of human wild type M1 receptor assessed as increase in acetylcholine-induced calcium flux by FLIPR assay. Format: functional. Background: A change in cytosolic calcium serves as a functional read-out for many receptors and channels.

For series [2], the target named is Muscarinic acetylcholine receptor M2 (Homo sapiens) (UniProt P08172). The series can be described thus: Agonist activity at M2 receptor (unknown origin) up to 10 uM. It is filed as functional.
Chain of Muscarinic acetylcholine receptor M2 (Homo sapiens) (P08172 whole entry): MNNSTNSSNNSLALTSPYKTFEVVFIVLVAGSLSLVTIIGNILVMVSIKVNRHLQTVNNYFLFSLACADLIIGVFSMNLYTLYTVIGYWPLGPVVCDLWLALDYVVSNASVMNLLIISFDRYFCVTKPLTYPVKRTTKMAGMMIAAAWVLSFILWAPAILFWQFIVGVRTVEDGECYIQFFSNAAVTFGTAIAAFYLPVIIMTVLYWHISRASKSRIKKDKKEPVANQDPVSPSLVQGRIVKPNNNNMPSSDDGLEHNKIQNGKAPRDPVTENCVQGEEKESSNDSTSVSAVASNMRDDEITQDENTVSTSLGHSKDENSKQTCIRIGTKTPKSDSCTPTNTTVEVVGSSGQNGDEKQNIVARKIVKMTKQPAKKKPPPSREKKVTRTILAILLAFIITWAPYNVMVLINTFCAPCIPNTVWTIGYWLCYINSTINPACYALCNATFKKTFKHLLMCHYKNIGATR
In series [3] the target is Muscarinic acetylcholine receptor M5 (Homo sapiens) (UniProt P08912). The series can be described thus: Agonist activity at M5 receptor (unknown origin) up to 10 uM. Format: functional.
Chain of Muscarinic acetylcholine receptor M5 (Homo sapiens) (P08912 whole entry): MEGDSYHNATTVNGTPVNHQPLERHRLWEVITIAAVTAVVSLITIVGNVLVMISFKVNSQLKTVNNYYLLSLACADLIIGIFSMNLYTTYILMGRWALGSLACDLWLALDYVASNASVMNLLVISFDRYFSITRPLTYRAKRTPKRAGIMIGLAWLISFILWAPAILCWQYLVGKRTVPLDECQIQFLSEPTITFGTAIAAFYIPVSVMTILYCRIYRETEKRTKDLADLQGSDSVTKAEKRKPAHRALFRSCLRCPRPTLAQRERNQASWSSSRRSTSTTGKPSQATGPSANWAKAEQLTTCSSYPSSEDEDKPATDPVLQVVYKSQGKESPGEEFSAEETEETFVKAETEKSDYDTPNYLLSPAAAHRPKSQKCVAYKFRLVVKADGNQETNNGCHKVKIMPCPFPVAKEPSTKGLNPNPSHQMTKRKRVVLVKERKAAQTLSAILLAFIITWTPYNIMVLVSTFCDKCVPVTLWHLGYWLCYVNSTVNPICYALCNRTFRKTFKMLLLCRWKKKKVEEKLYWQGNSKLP
Series [4] concerns the target Muscarinic acetylcholine receptor M1 (Rattus norvegicus) (UniProt P08482). As to the kind of experiment: Positive allosteric modulation of rat M1 receptor assessed as increase in acetylcholine-induced calcium flux by FLIPR assay relative to acetylcholine. Format: functional.
The target of series [5] is Muscarinic acetylcholine receptor M3 (Homo sapiens) (UniProt P20309). As to the kind of experiment: Agonist activity at M3 receptor (unknown origin) up to 10 uM. It is filed as functional.
Chain of Muscarinic acetylcholine receptor M3 (Homo sapiens) (P20309 whole entry, looked up): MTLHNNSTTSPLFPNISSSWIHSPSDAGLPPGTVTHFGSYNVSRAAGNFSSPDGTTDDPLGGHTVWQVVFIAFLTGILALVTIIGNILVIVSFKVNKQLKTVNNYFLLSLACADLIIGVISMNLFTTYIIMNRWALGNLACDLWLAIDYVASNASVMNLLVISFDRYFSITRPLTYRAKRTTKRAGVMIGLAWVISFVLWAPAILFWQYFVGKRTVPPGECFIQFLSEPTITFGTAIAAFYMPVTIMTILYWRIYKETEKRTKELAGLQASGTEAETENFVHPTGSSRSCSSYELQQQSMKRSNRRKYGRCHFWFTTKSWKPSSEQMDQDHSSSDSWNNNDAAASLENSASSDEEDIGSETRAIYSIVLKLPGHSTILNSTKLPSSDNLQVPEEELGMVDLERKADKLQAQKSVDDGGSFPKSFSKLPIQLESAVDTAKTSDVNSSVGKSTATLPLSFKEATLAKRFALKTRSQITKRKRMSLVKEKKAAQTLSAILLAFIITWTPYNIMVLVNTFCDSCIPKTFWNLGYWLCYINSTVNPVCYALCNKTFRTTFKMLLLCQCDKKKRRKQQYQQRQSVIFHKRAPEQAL
In series [6] the target is T2, Muscarinic acetylcholine receptor M1 (Homo sapiens, UniProt P11229).
T2 sequence (P11229 whole entry): T1 sequence (whole entry)
The description is as §1. It is filed as functional.

Series [7] concerns the target Muscarinic acetylcholine receptor M5 (Homo sapiens, UniProt P08912). The series can be described thus: Positive allosteric modulation of M5 receptor (unknown origin). Format: functional.
For series [8], the target named is Muscarinic acetylcholine receptor M4 (Homo sapiens) (UniProt P08173). As to the kind of experiment: Agonist activity at M4 receptor (unknown origin) up to 10 uM. It is filed as functional.
Series [9] has as its target Muscarinic acetylcholine receptor M1 (Homo sapiens, UniProt P11229, W400A/Y179A). As to the kind of experiment: Positive allosteric modulation of M1 receptor Y179A/W400A mutant (unknown origin).
Series [10] concerns the target Muscarinic acetylcholine receptor M5 (Homo sapiens) (UniProt P08912). As to the kind of experiment: Positive allosteric modulation of M5 receptor (unknown origin) relative to control. Format: functional.
For series [11], the target named is Muscarinic acetylcholine receptor M1 (Rattus norvegicus, UniProt P08482). The series can be described thus: Positive allosteric modulation of rat M1 receptor assessed as increase in acetylcholine-induced calcium flux by FLIPR assay. Format: functional.
The target in series [12] is T1, Muscarinic acetylcholine receptor M1 (Homo sapiens). The series can be described thus: Positive allosteric modulation of human wild type M1 receptor assessed as increase in acetylcholine-induced calcium flux by FLIPR assay relative to acetylcholine. It is filed as functional.
Series [13] has the same target. As to the kind of experiment: Antagonist activity at M1 receptor (unknown origin). Format: functional.
The target of series [14] is Muscarinic acetylcholine receptor M2 (Homo sapiens) (UniProt P08172). As to the kind of experiment: Positive allosteric modulation of M2 receptor (unknown origin). Format: functional.
Series [15] concerns Muscarinic acetylcholine receptor M1 (Homo sapiens), P11229 [Y179A,W400A]. The series can be described thus: Positive allosteric modulation of M1 receptor Y179A/W400A mutant (unknown origin) relative to control.
Series [16] concerns the target T1, Muscarinic acetylcholine receptor M1 (Homo sapiens). As to the kind of experiment: Agonist activity at M1 receptor (unknown origin) up to 10 uM. It is filed as functional.
The target is the same in series [17]. As to the kind of experiment: Receptor occupancy at M1 receptor (unknown origin) at EC50.
A short description of series [18]: Displacement of [3H]-Ro 15-1788 from rat brain synaptosomal membranes GABA receptor after 90 mins. (In general: In a radioligand displacement assay an active substance lowers the binding of a labelled ligand.)
Series [19] can be described thus: Activity at P-gp (unknown origin). The following applies: human. It is filed as ADME.
The nature of series [20]: Stability in mouse microsomes. It is filed as ADME, Microsome.
A short description of series [21]: Stability in human microsomes. It is filed as ADME, Microsome.
In the next series the target is Cytochrome P450 3A4 (Homo sapiens, UniProt P08684). The series can be described thus: Inhibition of CYP3A4 (unknown origin). Format: ADME.
Chain of Cytochrome P450 3A4 (P08684 whole entry): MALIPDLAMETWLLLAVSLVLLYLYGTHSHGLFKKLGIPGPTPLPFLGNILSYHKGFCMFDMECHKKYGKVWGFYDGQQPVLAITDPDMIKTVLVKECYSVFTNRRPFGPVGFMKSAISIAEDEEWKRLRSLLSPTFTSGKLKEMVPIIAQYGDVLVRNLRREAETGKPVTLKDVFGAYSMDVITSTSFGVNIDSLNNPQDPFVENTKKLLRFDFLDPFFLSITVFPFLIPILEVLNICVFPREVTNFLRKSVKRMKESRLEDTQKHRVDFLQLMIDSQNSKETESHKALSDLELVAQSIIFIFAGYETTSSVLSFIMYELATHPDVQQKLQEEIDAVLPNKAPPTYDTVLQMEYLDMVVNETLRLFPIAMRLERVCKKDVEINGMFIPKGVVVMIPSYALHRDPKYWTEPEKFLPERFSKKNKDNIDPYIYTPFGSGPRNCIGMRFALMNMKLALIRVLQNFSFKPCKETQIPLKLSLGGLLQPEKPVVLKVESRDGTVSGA
Series [22] can be described thus: Drug metabolism in rat microsomes assessed as amide formation. It is filed as ADME, Microsome.
Series [23] addresses GABA-A receptor; alpha-1/beta-2/gamma-2 (Rattus norvegicus, UniProt P18508+P62813+P63138). As to the kind of experiment: […] rat GABA-A receptor alpha1beta2gamma2 expressed in HEK293 cells by electrophysiology assay. It is filed as cell-based.
Series [24] concerns the target GABA-A receptor; alpha-2/beta-3/gamma-2 (Homo sapiens, UniProt P18507+P28472+P47869). The series can be described thus: […] human GABA-A receptor alpha2beta3gamma2 expressed in HEK293 cells by electrophysiology assay. Format: cell-based.
Series [25] addresses GABA-A receptor; alpha-5/beta-3/gamma-2 (Homo sapiens, UniProt P18507+P28472+P31644). As to the kind of experiment: […] human GABA-A receptor alpha5beta3gamma2 expressed in HEK293 cells by electrophysiology assay. It is filed as cell-based.
Series [26] deals with GABA-A receptor; alpha-1/beta-2/gamma-2 (Homo sapiens, UniProt P14867+P18507+P47870). The series can be described thus: […] human GABA-A receptor alpha1beta2gamma2 expressed in HEK293 cells by electrophysiology assay. It is filed as cell-based.
For series [27], the target named is GABA A receptor alpha-5/beta-3/gamma-2 (Rattus norvegicus, UniProt P18508+P19969+P63079). As to the kind of experiment: […] rat GABA-A receptor alpha5beta3gamma2 expressed in HEK293 cells by electrophysiology assay. Format: cell-based.
Series [28] deals with GABA-A receptor; alpha-3/beta-3/gamma-2 (Homo sapiens, UniProt P18507+P28472+P34903). The series can be described thus: […] human GABA-A receptor alpha3beta3gamma2 expressed in HEK293 cells by electrophysiology assay. It is filed as cell-based.
Chain of GABA-A receptor; alpha-3/beta-3/gamma-2 (P18507 whole entry): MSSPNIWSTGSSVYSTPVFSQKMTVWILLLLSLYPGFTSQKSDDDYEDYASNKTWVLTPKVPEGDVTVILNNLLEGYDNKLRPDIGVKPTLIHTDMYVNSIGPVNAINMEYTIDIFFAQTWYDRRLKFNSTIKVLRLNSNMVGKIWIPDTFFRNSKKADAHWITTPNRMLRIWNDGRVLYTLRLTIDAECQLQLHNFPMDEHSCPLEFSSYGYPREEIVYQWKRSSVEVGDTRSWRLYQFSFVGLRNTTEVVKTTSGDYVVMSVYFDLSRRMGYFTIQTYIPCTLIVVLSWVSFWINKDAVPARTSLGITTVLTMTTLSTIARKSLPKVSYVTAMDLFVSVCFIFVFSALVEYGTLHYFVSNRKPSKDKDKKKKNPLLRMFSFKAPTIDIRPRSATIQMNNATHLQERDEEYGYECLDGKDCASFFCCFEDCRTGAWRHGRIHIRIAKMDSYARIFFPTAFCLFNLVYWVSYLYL
Chain of GABA-A receptor; alpha-3/beta-3/gamma-2 (P28472 whole entry): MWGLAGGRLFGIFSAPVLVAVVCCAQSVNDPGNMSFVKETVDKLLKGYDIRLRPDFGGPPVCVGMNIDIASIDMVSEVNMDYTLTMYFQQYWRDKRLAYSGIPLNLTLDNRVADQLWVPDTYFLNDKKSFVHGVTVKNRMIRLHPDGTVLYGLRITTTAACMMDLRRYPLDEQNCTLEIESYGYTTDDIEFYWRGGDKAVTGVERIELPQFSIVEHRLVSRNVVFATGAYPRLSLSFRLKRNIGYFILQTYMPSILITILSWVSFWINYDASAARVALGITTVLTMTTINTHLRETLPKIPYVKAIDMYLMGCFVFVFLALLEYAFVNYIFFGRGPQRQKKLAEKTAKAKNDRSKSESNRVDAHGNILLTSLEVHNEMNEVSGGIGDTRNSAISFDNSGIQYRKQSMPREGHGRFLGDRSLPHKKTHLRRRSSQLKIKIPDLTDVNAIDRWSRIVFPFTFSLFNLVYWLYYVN
Chain of GABA-A receptor; alpha-3/beta-3/gamma-2 (P34903 whole entry): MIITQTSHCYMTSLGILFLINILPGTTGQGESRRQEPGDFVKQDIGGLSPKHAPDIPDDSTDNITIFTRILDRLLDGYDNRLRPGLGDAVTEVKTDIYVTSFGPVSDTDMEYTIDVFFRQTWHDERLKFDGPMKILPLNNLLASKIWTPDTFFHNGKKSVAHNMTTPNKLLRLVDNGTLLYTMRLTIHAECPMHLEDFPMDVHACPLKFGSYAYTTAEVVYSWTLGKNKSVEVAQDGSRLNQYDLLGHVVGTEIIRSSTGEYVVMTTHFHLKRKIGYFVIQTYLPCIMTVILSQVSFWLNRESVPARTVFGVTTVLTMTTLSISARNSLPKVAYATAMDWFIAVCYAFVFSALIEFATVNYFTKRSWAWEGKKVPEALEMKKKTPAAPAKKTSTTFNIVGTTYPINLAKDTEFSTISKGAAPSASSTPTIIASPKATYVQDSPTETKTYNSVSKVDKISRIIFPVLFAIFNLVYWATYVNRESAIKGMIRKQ
Series [29] addresses Gamma-aminobutyric acid receptor subunit alpha-2/beta-3/gamma-2 (Rattus norvegicus, UniProt P18508+P23576+P63079). As to the kind of experiment: […] rat GABA-A receptor alpha2beta3gamma2 expressed in HEK293 cells by electrophysiology assay. It is filed as cell-based.
For series [30], the target named is Gamma-aminobutyric acid receptor subunit alpha-3/beta-3/gamma-2 (Rattus norvegicus, UniProt P18508+P20236+P63079). As to the kind of experiment: […] rat GABA-A receptor alpha3beta3gamma2 expressed in HEK293 cells by electrophysiology assay. It is filed as cell-based.

Each structure is given as a SMILES string. The source made the active and inactive calls. No cut-off for these calls is given here.

Chain of GABA-A receptor; alpha-5/beta-3/gamma-2 (P18507 whole entry): as the sequence (P18507 whole entry) above
Chain of GABA-A receptor; alpha-5/beta-3/gamma-2 (P28472 whole entry): as the sequence (P28472 whole entry) above
Chain of GABA-A receptor; alpha-5/beta-3/gamma-2 (P31644 whole entry): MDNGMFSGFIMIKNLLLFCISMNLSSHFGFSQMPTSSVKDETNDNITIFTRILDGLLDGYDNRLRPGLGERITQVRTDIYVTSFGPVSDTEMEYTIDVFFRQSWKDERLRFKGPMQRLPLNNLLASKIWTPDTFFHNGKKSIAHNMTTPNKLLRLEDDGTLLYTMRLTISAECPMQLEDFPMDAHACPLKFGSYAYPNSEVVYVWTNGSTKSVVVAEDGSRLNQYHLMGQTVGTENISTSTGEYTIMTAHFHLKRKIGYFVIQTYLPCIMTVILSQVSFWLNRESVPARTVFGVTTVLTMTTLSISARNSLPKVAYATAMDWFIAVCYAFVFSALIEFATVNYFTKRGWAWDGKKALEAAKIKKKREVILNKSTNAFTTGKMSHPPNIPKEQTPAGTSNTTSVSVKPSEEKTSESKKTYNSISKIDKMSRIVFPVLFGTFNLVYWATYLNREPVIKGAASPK
Chain of GABA-A receptor; alpha-2/beta-3/gamma-2 (P18507 whole entry): as the sequence (P18507 whole entry) above
Chain of GABA-A receptor; alpha-2/beta-3/gamma-2 (P28472 whole entry): as the sequence (P28472 whole entry) above
Chain of GABA-A receptor; alpha-2/beta-3/gamma-2 (P47869 whole entry): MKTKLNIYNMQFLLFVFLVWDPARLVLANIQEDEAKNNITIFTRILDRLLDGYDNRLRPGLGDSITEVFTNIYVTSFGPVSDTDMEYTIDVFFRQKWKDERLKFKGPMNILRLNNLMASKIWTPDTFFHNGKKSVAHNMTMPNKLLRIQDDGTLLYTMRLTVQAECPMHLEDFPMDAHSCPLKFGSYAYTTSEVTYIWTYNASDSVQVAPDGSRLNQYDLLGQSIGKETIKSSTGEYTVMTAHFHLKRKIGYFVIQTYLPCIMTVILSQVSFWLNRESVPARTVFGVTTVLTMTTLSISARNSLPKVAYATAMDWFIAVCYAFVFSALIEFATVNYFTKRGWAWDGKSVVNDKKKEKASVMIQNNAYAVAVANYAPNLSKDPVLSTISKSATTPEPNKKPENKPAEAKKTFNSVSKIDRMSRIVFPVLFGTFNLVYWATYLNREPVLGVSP
Chain of Muscarinic acetylcholine receptor M5 (P08912 whole entry): as the sequence (P08912 whole entry) above

Take `CNC1=Nc2ccc(Cl)cc2C(c2ccccc2)=N[C@H]1C(C)C`: the outcome in series [1] was inactive.
Broadly, the Emax is the greatest response seen or fitted, relative to the assay's reference. A word on the EC50: it is the concentration needed to bring the measured effect to its halfway point. In general, Kb refers to the equilibrium dissociation constant of an antagonist, usually derived from a functional assay. A low value points to higher antagonist affinity. As to `CC(C)[C@@H]1N=C(c2ccccc2F)c2cc(Cl)ccc2NC1=S`, the result in [2], in series [3], in [5], in series [8], in [14] and in series [16] was inactive. Moreover, the Emax in series [4] was 88%; in series [10], 70%; in series [12], 78%; in [15] it was 80%. In addition, the EC50 in series [6] amounted to 80 nM; in series [7] it was 1300 nM; in [9], 178 nM; in series [11] it was 218 nM. Moreover, in series [13], the Kb was found to be 610 nM. This molecule came in with an Occ in [17] of 33%.
Take `CC(C)[C@@H]1N=C(c2ccccc2)c2cc(Cl)ccc2N(C)C1=S`: the EC50 was over 10000 nM in [6] and 73000 nM in [18].
In the case of `CC(C)[C@@H]1N=C(c2ccccc2)c2cc(Cl)ccc2N=C1N`, the outcome in series [1] was inactive.
For `CC1N=C(c2ccccc2)c2ccccc2NC1=S` (racemic), the EC50 came out at 552 nM in series [6] and 61 nM in series [18]. Moreover, the Emax in series [12] came to 88%.
For `CC(C)[C@@H]1N=C(c2ccccc2)c2cc(Cl)ccc2NC1=O`, in that order: 777 nM, 57000 nM and 90%.
With `CC(C)[C@H]1N=C(c2ccccc2)c2cc(Cl)ccc2NC1=S`, the EC50 is 521 nM in series [6] and 267000 nM in series [18]. The Emax in series [12] stood at 86%.
For `C[C@@H]1N=C(c2ccccc2)c2ccccc2NC1=S`, a half-maximal effect in series [18] (EC50) was put at 68000 nM.
In the case of `CSC1=Nc2ccc(Cl)cc2C(c2ccccc2)=N[C@H]1C(C)C`, in series [1], the outcome was inactive.
As to `CC(C)[C@@H]1N=C(c2ccccc2)c2cc(OC(F)(F)F)ccc2NC1=S`, the EC50 in series [6] amounted to 232 nM. The Emax in series [12] was found to be 127%.
The like results for `CC(C)C[C@@H]1N=C(c2ccccc2)c2cc(Cl)ccc2NC1=S` were, in that order, 317 nM and 107%.
For the molecule `CC(C)[C@@H]1N=C(c2ccccc2)c2cc(C(F)(F)F)ccc2NC1=S`, the Activity entry in series [19] was “Not Active”. For the same molecule, the Stability entry in [20] and in series [21] was “Stable” each time. Further, the EC50 in series [6] was 71 nM. Further, in series [12], the Emax was 72%. The “inhibition (INH)” value on Cytochrome P450 3A4 is recorded as “Not Active”. Also, the Drug metabolism entry in [22] was “Metabolite_Detected”.
Consider `S=C1Nc2ccc(Cl)cc2C(c2ccccc2)=N[C@H]1CC1CC1`, for which the EC50 in [6] was 251 nM. In addition, the Emax in series [12] came out at 108%.
For `CC(C)[C@@H]1N=C(C2CCCCC2)c2cc(Cl)ccc2NC1=S`, in that order: 414 nM and 75%.
The like results for `CCC1CN(c2ccccc2)c2cc(Cl)ccc2NC1=S` (stereo not given) were, in that order, 50 nM and 76%.
Consider `Fc1ccccc1C1=NCC(=S)Nc2ccc(I)cc21`, for which, in series [6], the EC50 is 2150 nM. Further, the Emax in series [12] was determined as 63%.
For `S=C1CN=C(c2ccccc2)c2cc(Br)ccc2N1`, the EC50 in series [6] was 962 nM. The Emax in [12] stood at 92%.
For `CC(C)[C@@H]1N=C(c2ccccc2)c2cc(Cl)ccc2NC1=S`, the EC50 in series [23] is over 24000 nM; in series [24], over 24000 nM; in [25], over 24000 nM; in series [26], over 24000 nM; in series [27], over 24000 nM; in series [6], 70 nM. For the same molecule, the EC50 in series [28], in series [29] and in series [30] was over 24000 nM throughout. For the same molecule, the Emax in series [12] was 102%.
As for `CC[C@@H]1N=C(c2ccccc2)c2cc(Cl)ccc2NC1=S`, the EC50 in series [6] was 187 nM. Moreover, in [12], the Emax stood at 66%.
For `CC(C)[C@H]1N=C(c2ccccc2F)c2cc(Cl)ccc2NC1=S`, in that order: 420 nM and 119%.
The like results for `CC(C)[C@@H]1N=C(c2cccc(Cl)c2)c2cc(Cl)ccc2NC1=S` were, in that order, 172 nM and 112%.
The like results for `COC(C)C1N=C(c2ccccc2)c2cc(Cl)ccc2NC1=S` (racemic) were, in that order, 354 nM and 98%.
Take `Fc1ccccc1C1=NCc2cnnn2-c2ccc(Cl)cc21`: in [1], the result was inactive.
For the molecule `Cc1ccc2c(c1)C(c1ccccc1)=NCC(=S)N2`, in [6], the EC50 amounted to 3680 nM. Further, in series [12], the maximum response (Emax) came to 91%.
On to `COc1ccc2c(c1)C(c1ccccc1)=N[C@@H](C(C)C)C(=S)N2`, for which the EC50 in series [6] worked out at 559 nM. Also, the Emax in series [12] was found to be 105%.
In the case of `CC1N=C(c2ccccc2)c2cc(C#N)ccc2NC1=S` (stereo not given), the EC50 in [6] is over 10000 nM. Further, the Emax in series [12] was 47%.
For `CC(C)[C@@H]1N=C(c2ccccn2)c2cc(Cl)ccc2NC1=S`, the EC50 in [6] is 289 nM. Also, the Emax in series [12] was 103%.
For `CC(C)[C@@H]1N=C(c2cccnc2)c2cc(Cl)ccc2NC1=S`, in that order: 275 nM and 112%.
The like results for `SC1=Nc2ccc(Cl)cc2C(c2ccccc2)=NC1` were, in that order, 180 to 857 nM and 82 to 92%.
For `CC(C)(O)C1N=C(c2ccccc2)c2cc(Cl)ccc2NC1=S` (racemic), in that order: 1850 nM and 113%.
